Like-named read-outs stand apart in the source and are kept apart here.
Assays:
[1] = Assessment of cast mixed films (appearance, transparency, inhomogeneities, cracks, brittleness or flexibility); type: physicochemical; conditions: films cast on Teflon, cured 24 hours at 60° C.
Description: (§1) Aquacoat® ECD was plasticized by stirring with triethyl citrate for 24 hours prior to addition of permeation enhancing agent. The dispersion stability was checked by optical microscopy for aggregation, coagulation or flocculation. Films were cast on Teflon® and cured for 24 hours at 60° C. The cast films were assessed in terms of appearance, transparency, inhomogeneities, or cracks and mechanical properties (semi-quantitative brittleness or flexibility).

[2] = Description: as §1
[3] = not told, pH 7.4
[4] = 10 to 30% w/w with respect to Aquacoat ECD solids, Aquacoat ECD plasticized with 25% w/w triethyl citrate

Row | Compound | Properties of cast mixed films with Aquacoat ECD [1] | Compatibility with / destabilisation of Aquacoat ECD dispersion [2] | also measured
1 | OC[C@H]1O[C@@](CO)(O[C@H]2O[C@H](CO)[C@@H](O)[C@H](O)[C@H]2O)[C@@H](O)[C@@H]1O [Sucrose] | good films | compatible | –
2 | Sodium Carboxymethylcellulose [reference compound] | – | destabilized | –
3 | Polyvinyl acetate [Kollicoat® SR 30 D] | – | compatible | –
4 | O=P([O-])([O-])O.[Na+].[Na+] [Disodium Hydrogen Phosphate] | inhomogenous films | – | Compatibility with / destabilisation of Aquacoat ECD dispersion [2, 4]: compatible
5 | OC[C@H]1O[C@@H](O[C@H]2[C@H](O)[C@@H](O)C(O)O[C@@H]2CO)[C@H](O)[C@@H](O)[C@H]1O (stereo partly drawn) [lactose, Lactose] | good films | compatible | –
6 | Polyvinyl alcohol-polyethylene glycol graft copolymer [Kollicoat® IR] | – | compatible in dispersion | Stability of the aqueous ethylcellulose coating dispersions in presence of the additive [2]: did not affect; Effect on water permeability (diffusion coefficient of water) of Aquacoat ECD-based films [3]: significantly increased
7 | [Cl-].[Na+] [Sodium chloride, Sodium Chloride, reference compound] | inhomogenous films, with recrystallisation and cracking | – | Compatibility with / destabilisation of Aquacoat ECD dispersion [2, 4]: destabilized
8 | OC[C@@H](O)[C@@H](O)[C@H](O)[C@@H](O)CO [sorbitol, Sorbitol] | good films | compatible | –
9 | OC[C@@H](O)[C@@H](O)[C@H](O)[C@H](O)CO [mannitol, Mannitol] | good films | compatible | –
10 | Iota carrageenan [Gelcarin® GP379] | – | not destabilized | –
11 | Hydroxypropylmethylcellulose [reference compound] | – | destabilized | –
12 | Microcrystalline cellulose-carrageenan [LustreClear® LC103] | – | very viscous destabilised | –
13 | Lambda carrageenan [Viscarin® GP209] | – | viscous stable dispersions | Stability of the aqueous ethylcellulose coating dispersions in presence of the additive [2]: stable
14 | Starch | – | compatible | –
15 | Kappa carrageenan [Gelcarin® GP911] | – | viscous stable dispersions | –

Reference: patent publication US20070184102A1, “LATEX OR PSEUDOLATEX COMPOSITIONS, COATINGS AND COATING PROCESSES” (priority 2006, published 2007)
